Experimental data: ChEMBL document CHEMBL1201862, “PubChem BioAssay data set” (2004)
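Step 1: Grow cells in 96-well plates. Step 2: Expose to compound for 48 hours at 5 concentrations. Step 3: Interpolate endpoints linearly; if unreached, use highest concentration. Abbreviation: GI50, concentration required for 50% inhibition of growth.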 Activity calls are given as the source filed them. Cut-off read from the data, not from the text of the source: active = GI50 up to about 1.1 µM and inactive = higher.

What was measured:
Experiment in all cases: NCI-60 cell line screen, 48 h
SK-MEL-2 = tested on: SK-MEL-2
SF-268 = tested on: SF-268
UACC-257 = tested on: UACC-257
A549 = tested on: A549
M14 = tested on: M14
TK-10 = tested on: TK-10
A498 = tested on: A498
NCI-H226 = tested on: NCI-H226
RXF 393 = tested on: RXF 393
OVCAR-3 = tested on: OVCAR-3
OVCAR-5 = tested on: OVCAR-5
MOLT-4 = tested on: MOLT-4
ACHN = tested on: ACHN
MDA-N = tested on: MDA-N
OVCAR-4 = tested on: OVCAR-4
NCI-H522 = tested on: NCI-H522
CAKI-1 = tested on: CAKI-1
SN12C = tested on: SN12C
HT-29 = tested on: HT-29
Malme-3M = tested on: Malme-3M

| Compound | GI50 (SK-MEL-2) | GI50 (SF-268) | GI50 (UACC-257) | GI50 (A549) | GI50 (M14) | GI50 (TK-10) | GI50 (A498) | GI50 (NCI-H226) | GI50 (RXF 393) | GI50 (OVCAR-3) | GI50 (OVCAR-5) | GI50 (MOLT-4) | GI50 (ACHN) | GI50 (MDA-N) | GI50 (OVCAR-4) | GI50 (NCI-H522) | GI50 (CAKI-1) | GI50 (SN12C) | GI50 (HT-29) | GI50 (Malme-3M) |
| --- | --- | --- | --- | --- | --- | --- | --- | --- | --- | --- | --- | --- | --- | --- | --- | --- | --- | --- | --- | --- |
| Cc1c(OCc2cccc3ccccc23)ccc2c(O)cc(=S)oc12 | 19.4 µM (inactive) | 34.1 µM (inactive) | 46.3 µM (inactive) | 55.7 µM (inactive) | 34.8 µM (inactive) | 56.5 µM (inactive) | 82.2 µM (inactive) | 39.5 µM (inactive) | 57.9 µM (inactive) | 22.9 µM (inactive) | 54.1 µM (inactive) | 32 µM (inactive) | 34.2 µM (inactive) | 43.4 µM (inactive) | 29 µM (inactive) | 23.4 µM (inactive) | 43 µM (inactive) | 48.4 µM (inactive) | 38.2 µM (inactive) |  |
| O=c1cc(CBr)c2ccc(O)cc2o1 | > 100 µM (inactive) | > 100 µM (inactive) | 64.4 µM (inactive) | 92.5 µM (inactive) | 59.6 µM (inactive) | 88.5 µM (inactive) | 25.8 µM (inactive) | 78 µM (inactive) | 31.8 µM (inactive) | 32 µM (inactive) | 8.39 µM (inactive) | 60 µM (inactive) | 66.4 µM (inactive) | 98.9 µM (inactive) |  | 42.1 µM (inactive) | 43.6 µM (inactive) | 88.7 µM (inactive) | 54.5 µM (inactive) | 53.7 µM (inactive) |
| [O-][Cl+3]([O-])([O-])[O-].[O-][Cl+3]([O-])([O-])[O-].c1ccn2c(N3CCOCC3)[n+]3c4ccccc4[n+]4c(N5CCOCC5)n5ccccc5c4c3c2c1 | > 100 µM (inactive) | 19 µM (inactive) | 68.9 µM (inactive) | > 100 µM (inactive) | > 100 µM (inactive) | > 100 µM (inactive) | > 100 µM (inactive) | 79.4 µM (inactive) | > 100 µM (inactive) | > 100 µM (inactive) | > 100 µM (inactive) | > 100 µM (inactive) | > 100 µM (inactive) | 63.5 µM (inactive) | > 100 µM (inactive) | > 100 µM (inactive) | > 100 µM (inactive) | 17.7 µM (inactive) |  | 66.2 µM (inactive) |
| CN(C)c1ccc(/C=C(\NC(=O)c2ccccc2)C2NC(Cc3c[nH]c4ccccc34)C(=O)O2)cc1 (stereo not given) | 27.3 µM (inactive) | 11.6 µM (inactive) | 40.6 µM (inactive) | 5.16 µM (inactive) | 42.2 µM (inactive) |  | > 93.1 µM (inactive) | > 100 µM (inactive) | > 91 µM (inactive) | 60.8 µM (inactive) | > 83.6 µM (inactive) | 16.6 µM (inactive) | 8.85 µM (inactive) | 34.8 µM (inactive) | 12.3 µM (inactive) | 3.46 µM (inactive) | > 59 µM (inactive) | > 28.5 µM (inactive) | 3.25 µM (inactive) | 21.4 µM (inactive) |
| CC(=O)Oc1cc(OC(C)=O)c2c(c1C)CC[C@@H]1[C@@H]2CC[C@]2(C)[C@@H](OC(C)=O)CC[C@@H]12 |  | 20.3 µM (inactive) | 17.7 µM (inactive) | 18.5 µM (inactive) | 19.5 µM (inactive) | 20 µM (inactive) | 18.9 µM (inactive) | 17.4 µM (inactive) | 13.1 µM (inactive) | 17.3 µM (inactive) | > 10 µM (inactive) | 11.9 µM (inactive) | 17.5 µM (inactive) | 18.6 µM (inactive) |  | 16.7 µM (inactive) | 24.5 µM (inactive) | 17.5 µM (inactive) | 15.8 µM (inactive) | 15.6 µM (inactive) |
| NC(=O)c1csc(C2(O)COC(CO)C2O)n1 (stereo not given) | > 100 µM (inactive) | > 100 µM (inactive) | > 100 µM (inactive) | > 100 µM (inactive) | > 100 µM (inactive) | > 100 µM (inactive) | > 100 µM (inactive) | > 100 µM (inactive) | > 100 µM (inactive) | > 100 µM (inactive) | > 100 µM (inactive) |  | > 100 µM (inactive) | > 100 µM (inactive) | > 100 µM (inactive) | > 100 µM (inactive) | > 100 µM (inactive) | > 100 µM (inactive) | > 100 µM (inactive) | > 100 µM (inactive) |
| CCC(c1nc2ccccc2c(=O)n1NC(=O)C(C)(C)C)C1(O)CCCCC1 (stereo not given) | > 100 µM (inactive) | > 100 µM (inactive) | > 100 µM (inactive) | > 100 µM (inactive) | > 100 µM (inactive) |  | > 100 µM (inactive) | > 100 µM (inactive) | > 100 µM (inactive) | > 100 µM (inactive) | > 100 µM (inactive) | 80.4 µM (inactive) | > 100 µM (inactive) | > 100 µM (inactive) | > 100 µM (inactive) | 67.8 µM (inactive) | > 100 µM (inactive) | > 100 µM (inactive) | > 100 µM (inactive) | > 100 µM (inactive) |
| O=C1CCCC1CC(CN1CCOCC1)Sc1nnnn1-c1ccccc1 (stereo not given) | > 100 µM (inactive) |  | > 100 µM (inactive) | > 100 µM (inactive) | > 100 µM (inactive) |  | > 100 µM (inactive) | > 100 µM (inactive) | 34.6 µM (inactive) | > 100 µM (inactive) | 72.6 µM (inactive) | > 100 µM (inactive) | 31 µM (inactive) | > 100 µM (inactive) | > 100 µM (inactive) | > 100 µM (inactive) | 16.8 µM (inactive) | > 100 µM (inactive) | 31 µM (inactive) | > 100 µM (inactive) |
| C=C(CCOC)CCC1CCCCC(CN(C)C)C1=O (stereo not given) | > 100 µM (inactive) | > 100 µM (inactive) |  | > 100 µM (inactive) | > 100 µM (inactive) |  | > 100 µM (inactive) | > 100 µM (inactive) | > 100 µM (inactive) | > 100 µM (inactive) | > 100 µM (inactive) | > 100 µM (inactive) | > 100 µM (inactive) | > 100 µM (inactive) | > 100 µM (inactive) | > 100 µM (inactive) | > 100 µM (inactive) | > 100 µM (inactive) | > 100 µM (inactive) | > 100 µM (inactive) |
| COc1cc(C2c3cc4c(cc3[C@H](NC(=O)c3cccs3)C3COC(=O)[C@H]23)OCO4)cc(OC)c1OC (stereo not given in full) | 34.1 µM (inactive) | < 0.0195 µM (active) |  | < 0.019 µM (active) | < 0.0197 µM (active) | > 40.9 µM (inactive) | 0.012 µM (active) | 0.668 µM (active) | 0.0133 µM (active) | 0.0361 µM (active) | > 46.9 µM (inactive) | < 0.0149 µM (active) | < 0.0174 µM (active) | < 0.01 µM (active) |  | < 0.01 µM (active) |  | < 0.0187 µM (active) | 0.012 µM (active) | 92.3 µM (inactive) |
| COc1ccc(-c2c(C(C)=O)c(-c3ccccc3)n(C3OC(COC(C)=O)C(OC(C)=O)C(OC(C)=O)C3OC(C)=O)c(=S)c2C#N)cc1 (stereo not given) |  | > 100 µM (inactive) | > 100 µM (inactive) | > 100 µM (inactive) | > 100 µM (inactive) | > 100 µM (inactive) | > 100 µM (inactive) | > 100 µM (inactive) | > 100 µM (inactive) | > 100 µM (inactive) | > 100 µM (inactive) | > 100 µM (inactive) | > 100 µM (inactive) | > 100 µM (inactive) | > 100 µM (inactive) | > 100 µM (inactive) | > 100 µM (inactive) | > 100 µM (inactive) | > 100 µM (inactive) | > 100 µM (inactive) |
| Cc1c2c(C(N)=O)nccc2c(C)c2c1c1ccccc1n2Cc1ccccc1 | 18.8 µM (inactive) | 28.4 µM (inactive) | 43.3 µM (inactive) | 14.8 µM (inactive) | 56.2 µM (inactive) | 15.9 µM (inactive) | 21 µM (inactive) | 23.7 µM (inactive) | 11.9 µM (inactive) | 3.97 µM (inactive) | 28.6 µM (inactive) | 32.7 µM (inactive) | 16.3 µM (inactive) | 29 µM (inactive) | 2.61 µM (inactive) | 23.7 µM (inactive) | 17.6 µM (inactive) | 17.7 µM (inactive) | 18.8 µM (inactive) |  |
| CC(NC(=O)/C(=C/c1ccccc1O)NC(=O)c1ccccc1)C(=O)O (stereo not given) |  | 15.8 µM (inactive) | 70 µM (inactive) | 43.1 µM (inactive) | 51.3 µM (inactive) | 44.3 µM (inactive) | > 100 µM (inactive) | 14 µM (inactive) | 21.8 µM (inactive) |  | > 100 µM (inactive) | > 100 µM (inactive) | 19.1 µM (inactive) | 8.13 µM (inactive) | 40.4 µM (inactive) | 18.5 µM (inactive) | 19 µM (inactive) | 21.6 µM (inactive) | 73.5 µM (inactive) | 21 µM (inactive) |
| C/C1=C/C2=CC(C)C[C@@H]2C(=O)[C@]2(C)C(=O)CC(C)(C)[C@H]2CC1=O (stereo not given in full) | > 50 µM (inactive) | > 50 µM (inactive) | > 50 µM (inactive) | > 50 µM (inactive) | > 50 µM (inactive) | > 50 µM (inactive) | > 50 µM (inactive) | > 50 µM (inactive) |  | > 50 µM (inactive) | > 50 µM (inactive) | > 50 µM (inactive) | > 50 µM (inactive) | > 50 µM (inactive) | > 50 µM (inactive) | > 50 µM (inactive) | > 50 µM (inactive) | > 50 µM (inactive) | > 50 µM (inactive) | > 50 µM (inactive) |
